The values that follow come from article PMC9695592, “Phenotypic Evaluation of Nucleoside Analogues against Trypanosoma cruzi Infection: In Vitro and In Vivo Approaches” (Molecules, 2022).

Each structure is given as a SMILES string. Read-outs that look alike come from different tables or passages of the source.

For assay [1], the system named is intracellular forms of T. cruzi (Tulahuen strain). In words: Activity against intracellular forms of T. cruzi (Tulahuen-β gal strain) in L929 cultures, CPRG readout. The conditions noted are these: Trypanosoma cruzi, 168 h; Tulahuen strain in L929, seven days of compound incubation; 95% confidence interval in brackets. The format is cell-based. An excerpt: (§1) L929 cell lines were used to evaluate the effect of the nucleoside derivatives on the cellular viability of mammalian host cells and to assess their activity against intracellular forms of T. cruzi (Tulahuen strain expressing E. coli β-galactosidase gene, DTU VI) as reported. 2D and 3D culture systems of rat cardiomyoblast cell lines (H9C2(2-1)) were used to evaluate cardiotoxicity and to test the derivatives’ activity on intracellular forms (Y strain, DTU II). In all assays, the cell cultures were maintained at 37 °C under an atmosphere of 5% CO2.
Bloodstream trypomastigotes of the Y strain (DTU II) were obtained by cardiac puncture of infected Swiss Webster mice on the parasitemia peak to perform drug sensitivity assays. Trypomastigote forms of the Tulahuen-β gal strain were collected from the supernatant of previously infected L929 cell cultures (host/parasite cell ratio 10:1). The intracellular forms T. cruzi were studied by the infection of L929 and H9C2 (2D and 3D) cell cultures infected for 48 and 24 h with trypomastigotes of Tulahuen-β gal and Y strains, respectively. The Leishmania mexicana-Cas9 T7 strain (LmexCas9) was derived from L. mexicana WT promastigotes by expression of the Streptococcus pyogenes Cas9 nuclease gene ‘Cas9′ and maintained on 32 μg/mL hygromycin [51]. This strain and the derived strains Cas9^ΔNT1 and Cas9^ΔNT1+TcrNT2 were cultured in HOMEM medium supplemented with 10% of FBS and 1% Penicillin-Streptomycin antibiotic in unvented flasks at 25 °C [52]. The Cas9^ΔNT1 strain is identical to Cas9 except that the LmexNT1.1/NT1.2 locus encoding the L. mexicana adenosine/ pyrimidine transporters was excised using Cas9 [17, 40]. Cas9^ΔNT1+TcrNT2 is the further modification of that strain by the expression of the T. cruzi nucleoside transporter 2 (TcrNT2) gene in it, using the vector pNUS-HcN [53]. Appropriate antibiotics were added for the selection and maintenance of transfectants.
In an initial step, nucleoside derivatives were assayed against intracellular forms of Tulahuen-β gal strain in L929 cell lines. Assays were performed in sterile 96-well microtiter plates with 4 × 10^3 cells/well and 4 × 10^4 parasites/well (host/parasite cell ratio 1:10). After the establishment of infection (48 h), increasing concentrations (up to 30 µM) of the compounds were added, and the cultures maintained at 37 °C for seven days. Untreated-infected controls represented 100% growth. Parasite burden was analyzed by adding the substrate CPRG (chlorophenol red ß-D-galactopyranoside) followed by measurements (spectrophotometrically) at 570 nm. The results were expressed as percentage of reduction in parasite growth compared to untreated cells, and EC50 values were calculated. Bz was used as a positive control. To investigate the effect of the compounds against intracellular forms of the Y strain, rat cardiomyoblasts (2D cultures of H9C2) were seeded in 24-well plates and, after 24 h of platting, were infected with bloodstream trypomastigotes (20 parasites per host cell). After 24 h of interaction, the infected cultures were rinsed to remove non-internalized parasites and incubated with 10 µM of the tested compounds. After seven days of treatment, the cultures were fixed, stained with Giemsa, and 200 cells were quantified by light microscopy. The results were expressed as % of reduction in parasite burden. The data results from two independent experiments performed in at least duplicate were obtained.

The next assay deals with H9C2 3D cultures. As to the kind of experiment: Cardiotoxicity on H9C2 organoids (3D), PrestoBlue. The class given is cell-based, rat. The settings on record: 95% confidence interval in brackets.
Description: as §1
L929 cells seeded in sterile 96-well microtiter plates were exposed or not to increasing concentrations (up to 200 µM) of the compounds. After seven days of incubation, the cell growth of treated cultures was compared to untreated control cells (100% cell growth). Cellular viability was assessed through AlamarBlue® (resazurin sodium salt) colorimetric assay, and the results were expressed as % reduction in cell growth/viability compared to untreated control, and an IC50 value determined. For the assays using H9C2 cultures, 25 × 10^3 cells/well were seeded in a 96-well microtiter plates (flat and U bottoms, precoated with agarose 1% for preparing 2- and 3D matrices, respectively) and maintained at 37 °C [48, 54].
The cardiac cultures were exposed or not to increasing concentrations of the nucleoside derivatives (up to 300 µM), and after seven days of incubation, their physiology and morphology was evaluated by light microscopy. Cell viability was measured using the PrestoBlue® (PB) colorimetric assay, the results evaluated as % reduction in cell growth/viability compared to untreated control, and an IC50 value determined. The data results from at least two independent experiments done in at least duplicates.

The next assay concerns H9C2 2D cultures. As to the kind of experiment: Cardiotoxicity on H9C2 monolayers (2D), PrestoBlue. The class given is cell-based. The settings on record: Rattus norvegicus.
Description: as §1
L929 cells seeded in sterile 96-well microtiter plates were exposed or not to increasing concentrations (up to 200 µM) of the compounds. […] Cellular viability was assessed through AlamarBlue® (resazurin sodium salt) colorimetric assay, and the results were expressed as % reduction in cell growth/viability compared to untreated control, and an IC50 value determined. For the assays using H9C2 cultures, 25 × 10^3 cells/well were seeded in a 96-well microtiter plates (flat and U bottoms, precoated with agarose 1% for preparing 2- and 3D matrices, respectively) and maintained at 37 °C [48, 54].
[…] Cell viability was measured using the PrestoBlue® (PB) colorimetric assay, the results evaluated as % reduction in cell growth/viability compared to untreated control, and an IC50 value determined. The data results from at least two independent experiments done in at least duplicates.

[2] abbreviates: Rattus norvegicus, H9c2, 168 h, read-out: Cardiotoxic profile IC50 (µM) 3D, 3D H9C2, seven days of compound incubation.
The mark [3] stands for this setting: H9c2, 24 h, read-out: H9C2 IC50 µM.
[4] abbreviates: H9c2, 168 h, read-out: Cardiotoxic profile IC50 (µM) 2D.
[5] abbreviates: read-out: Cardiotoxic profile IC50 (µM) 3D, 3D H9C2, seven days of compound incubation.

In turn, `O=C(Cn1ccnc1[N+](=O)[O-])NCc1ccccc1` [Bz, Benznidazole, reference compound] returned an EC50 in assay [1] of 1.97 µM. The same compound returned an EC90 in assay [1] of 5.54 µM. For the same compound, the IC50 with H9C2 3D cultures (setting [2]) is more than 200 µM; in the assay on H9C2 2D cultures (setting [3]), more than 300 µM; in the assay with H9C2 2D cultures (setting [4]), more than 200 µM.

Compound `Nc1ncnc2c1c(-c1ccc(Cl)c(Cl)c1)cn2[C@@H]1O[C@H](CO)C[C@H]1O` [FH8513, 7-(3,4-dichlorophenyl)-3′-deoxytubercidin] registered an EC50 in assay [1] of 0.2 µM. The compound also registered an EC90 in assay [1] of 1.61 µM. In addition, the IC50 in the assay with H9C2 3D cultures (setting [2]) was 199 µM; in the assay with H9C2 3D cultures (setting [5]), 200 µM; in the assay on H9C2 2D cultures (setting [3]), 268 µM; in the assay on H9C2 2D cultures (setting [4]) it was 18.6 µM.

For `Nc1ncnc2c1c(-c1ccc(Cl)c(F)c1)cn2[C@@H]1O[C@H](CO)[C@@H](O)[C@H]1O` [FH10714, 7-(3-fluoro,4-chlorophenyl)tubercidin], in assay [1], the EC50 worked out at 0.47 µM. The EC90 in assay [1] stood at 6.19 µM. Besides, the IC50 in the assay with H9C2 3D cultures (setting [2]) was 180 µM; in the assay with H9C2 3D cultures (setting [5]) it was 181 µM; in the assay with H9C2 2D cultures (setting [3]) it was more than 300 µM; in the assay on H9C2 2D cultures (setting [4]), 41.8 µM.

For `Nc1ncnc2c1c(-c1ccc(F)c(F)c1)cn2[C@@H]1O[C@H](CO)[C@@H](O)[C@H]1O` [FH11706, 7-(3,4-Difluorophenyl)tubercidin], the EC50 in assay [1] is 1.11 µM. In assay [1], this compound came in with an EC90 of more than 30 µM. For the same compound, the IC50 with H9C2 3D cultures (setting [2]) was more than 200 µM; in the assay with H9C2 2D cultures (setting [3]) it was more than 300 µM; in the assay with H9C2 2D cultures (setting [4]), 47.7 µM.

As a reminder, the EC50 is the concentration giving half of the maximal effect. Higher therefore signals a less potent agent. As usually defined, the EC90 is the point of the concentration-response curve where the effect stands at 90%. A low value points to greater potency. As usually defined, the IC50 is the concentration that gives 50% inhibition.
